Target: T1, enolase (Oryctolagus cuniculus, UniProt P25704)
T1 construct: gene ENO3; purified rabbit muscle enolase (Sigma)
Assay: coupled pyruvate kinase/lactate dehydrogenase enzyme assay, NADH absorption at […] nm
Assay type: biochemical

T1 sequence (P25704 2-434): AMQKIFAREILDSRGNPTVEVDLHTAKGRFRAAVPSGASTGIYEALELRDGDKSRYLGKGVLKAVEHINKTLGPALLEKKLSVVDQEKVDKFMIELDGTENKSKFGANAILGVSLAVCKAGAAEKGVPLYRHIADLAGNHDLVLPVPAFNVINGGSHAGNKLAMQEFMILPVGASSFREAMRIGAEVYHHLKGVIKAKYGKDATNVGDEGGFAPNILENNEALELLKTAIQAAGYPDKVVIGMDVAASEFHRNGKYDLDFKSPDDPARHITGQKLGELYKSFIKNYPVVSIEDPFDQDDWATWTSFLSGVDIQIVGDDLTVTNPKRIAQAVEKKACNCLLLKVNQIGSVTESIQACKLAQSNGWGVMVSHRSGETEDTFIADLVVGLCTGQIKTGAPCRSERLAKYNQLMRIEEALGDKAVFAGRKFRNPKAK

Compound: O=C(O)COP(=O)(O)O [phosphoglycolate]
- Ki: ~160 µM
